Common to all, as to assay: Kinase selectivity, scanMAX Kinase assay panel (DiscoverX), % control at 1 uM
What all share (format): binding

For assay [1], the target named is T1, scanMAX Kinase assay panel (Homo sapiens, UniProt P52333).
T1 construct: purchased DiscoverX
T1 sequence (P52333 1-1124): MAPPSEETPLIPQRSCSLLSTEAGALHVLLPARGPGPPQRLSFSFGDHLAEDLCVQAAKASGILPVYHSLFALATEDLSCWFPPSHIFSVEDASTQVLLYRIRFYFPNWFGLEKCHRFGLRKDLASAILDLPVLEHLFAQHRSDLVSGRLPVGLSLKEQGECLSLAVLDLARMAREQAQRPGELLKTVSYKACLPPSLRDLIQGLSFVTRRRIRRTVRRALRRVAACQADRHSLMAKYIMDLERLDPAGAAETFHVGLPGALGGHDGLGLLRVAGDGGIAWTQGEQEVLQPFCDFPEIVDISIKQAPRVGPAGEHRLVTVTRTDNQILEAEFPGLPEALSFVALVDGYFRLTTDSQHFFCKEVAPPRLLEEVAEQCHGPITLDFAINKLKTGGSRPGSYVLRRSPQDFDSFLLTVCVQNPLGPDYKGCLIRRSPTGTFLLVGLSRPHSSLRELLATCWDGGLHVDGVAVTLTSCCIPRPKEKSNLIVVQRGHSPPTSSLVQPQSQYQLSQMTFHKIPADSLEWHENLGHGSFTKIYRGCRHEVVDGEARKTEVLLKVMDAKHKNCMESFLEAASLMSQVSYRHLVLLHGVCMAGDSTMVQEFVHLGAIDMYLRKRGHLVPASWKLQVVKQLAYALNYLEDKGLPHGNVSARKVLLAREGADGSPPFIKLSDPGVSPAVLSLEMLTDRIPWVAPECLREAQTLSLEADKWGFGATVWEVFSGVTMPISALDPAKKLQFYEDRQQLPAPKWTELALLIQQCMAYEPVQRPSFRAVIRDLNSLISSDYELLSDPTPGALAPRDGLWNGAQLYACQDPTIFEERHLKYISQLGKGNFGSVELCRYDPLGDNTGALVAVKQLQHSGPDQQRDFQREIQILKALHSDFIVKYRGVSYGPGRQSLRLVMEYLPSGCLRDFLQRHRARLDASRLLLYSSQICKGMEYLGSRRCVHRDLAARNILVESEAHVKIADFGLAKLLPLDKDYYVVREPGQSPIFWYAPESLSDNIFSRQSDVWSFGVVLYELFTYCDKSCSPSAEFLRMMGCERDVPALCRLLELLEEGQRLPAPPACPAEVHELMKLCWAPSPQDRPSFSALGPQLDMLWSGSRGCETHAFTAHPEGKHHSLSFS
To be noted: JAK3 (JH1domain-catalytic); 1 uM; read-out: Percent Control (%). The method in brief:
(§1)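 Compounds were tested at 1 uM in DMSO against each enzyme in the panel. Percent control was calculated as (compound − positive control)/(negative control − positive control) × 100, and a compound was scored active on a kinase when this value fell below 35.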

The target in assay [2] is T2, scanMAX Kinase assay panel (Homo sapiens, UniProt Q8IWQ3).
T2 construct: purchased DiscoverX
T2 sequence (Q8IWQ3 1-736): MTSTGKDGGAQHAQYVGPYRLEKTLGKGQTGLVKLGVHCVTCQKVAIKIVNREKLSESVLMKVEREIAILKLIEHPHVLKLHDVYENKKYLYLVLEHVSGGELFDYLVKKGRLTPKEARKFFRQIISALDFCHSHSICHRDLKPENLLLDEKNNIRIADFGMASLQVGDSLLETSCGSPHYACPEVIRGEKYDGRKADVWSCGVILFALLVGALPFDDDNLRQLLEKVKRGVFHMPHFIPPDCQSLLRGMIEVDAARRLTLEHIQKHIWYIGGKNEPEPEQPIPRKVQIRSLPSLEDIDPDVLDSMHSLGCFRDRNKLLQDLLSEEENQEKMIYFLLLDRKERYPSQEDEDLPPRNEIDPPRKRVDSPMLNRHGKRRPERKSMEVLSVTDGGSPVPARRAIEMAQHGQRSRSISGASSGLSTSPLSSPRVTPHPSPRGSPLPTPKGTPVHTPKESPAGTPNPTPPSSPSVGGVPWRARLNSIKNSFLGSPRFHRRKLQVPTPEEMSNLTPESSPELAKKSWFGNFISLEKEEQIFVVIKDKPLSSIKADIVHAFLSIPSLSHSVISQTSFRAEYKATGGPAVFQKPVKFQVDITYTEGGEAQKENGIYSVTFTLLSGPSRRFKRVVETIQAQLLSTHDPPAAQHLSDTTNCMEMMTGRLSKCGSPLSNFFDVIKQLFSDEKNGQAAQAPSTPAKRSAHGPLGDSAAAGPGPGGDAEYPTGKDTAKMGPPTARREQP
To be noted: BRSK2; 1 uM; read-out: Percent Control (%). The essentials:
as §1

Assay [3] deals with T3, scanMAX Kinase assay panel (Homo sapiens, UniProt Q9UHD2).
T3 construct: purchased DiscoverX
T3 sequence (Q9UHD2 1-729): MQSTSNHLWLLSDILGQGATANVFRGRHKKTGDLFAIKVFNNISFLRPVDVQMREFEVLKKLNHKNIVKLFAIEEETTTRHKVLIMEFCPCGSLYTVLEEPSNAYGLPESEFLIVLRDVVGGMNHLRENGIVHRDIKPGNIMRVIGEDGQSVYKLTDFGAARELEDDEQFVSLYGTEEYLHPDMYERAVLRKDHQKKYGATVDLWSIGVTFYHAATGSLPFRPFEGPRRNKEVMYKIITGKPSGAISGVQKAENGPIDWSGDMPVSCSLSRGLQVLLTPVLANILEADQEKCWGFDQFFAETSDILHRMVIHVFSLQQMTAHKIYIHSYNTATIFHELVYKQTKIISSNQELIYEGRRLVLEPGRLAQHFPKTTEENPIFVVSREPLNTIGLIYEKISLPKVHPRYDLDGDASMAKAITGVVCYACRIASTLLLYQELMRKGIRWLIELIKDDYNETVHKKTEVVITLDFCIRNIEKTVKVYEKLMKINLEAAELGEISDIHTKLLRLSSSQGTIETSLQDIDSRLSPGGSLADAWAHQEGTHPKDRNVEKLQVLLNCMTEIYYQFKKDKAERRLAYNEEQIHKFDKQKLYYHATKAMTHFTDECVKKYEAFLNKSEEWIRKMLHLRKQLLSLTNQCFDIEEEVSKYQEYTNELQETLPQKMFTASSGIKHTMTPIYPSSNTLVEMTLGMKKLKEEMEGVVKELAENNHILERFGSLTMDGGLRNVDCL
To be noted: TBK1; 1 uM; read-out: Percent Control (%). The method in brief:
as §1

The target of assay [4] is T4, scanMAX Kinase assay panel (Homo sapiens, UniProt P24941).
T4 construct: purchased DiscoverX
To be noted: CDK2; 1 uM; read-out: Percent Control (%). The method in brief: as §1

This is an account of results in patent US10870647B2, “Imidazopyridine derivative, method for preparing same, and pharmaceutical composition containing same as active ingredient for preventing or treating cancer” (DAEGU-GYEONGBUK MEDICAL INNOVATION FOUNDATION, priority 2016, dated 2020).

With `Cc1ccc(C(=O)Nc2ccc(CN3CCN(C)CC3)c(C(F)(F)F)c2)cc1C#Cc1cnc2c(Nc3cnn(C)c3)cccn12` [Example 1, 4-methyl-3-((8-((1-methyl-1H-pyrazol-4-yl)amino)imidazo[1,2-a]pyridin-3-yl)ethynyl)-N-(4-((4-methylpiperazin-1-yl)methyl)-3-(trifluoromethyl)phenyl)benzamide], the remaining binding at 1 µM in assay [1] worked out at 1%; in assay [2], 96%; in assay [3], 68%; in assay [4], 29%.

With `Cc1cn(-c2cc(NC(=O)c3ccc(C)c(C#Cc4cnc5c(Nc6cnn(C)c6)cccn45)c3)cc(C(F)(F)F)c2)cn1` [Example 12, 4-methyl-N-(3-(4-methyl-1H-imidazol-1-yl)-5-(trifluoromethyl)phenyl)-3-((8-((1-methyl-1H-pyrazol-4-yl)amino)imidazo[1,2-a]pyridin-3-yl)ethynyl)benzamide], the remaining binding at 1 µM in assay [1] was determined as 19%; in assay [2] it was 87%; in assay [3] it was 84%; in assay [4], 85%.

Take `Cc1ccc(NC(=O)C2(C(=O)Nc3ccc(F)cc3)CC2)cc1C#Cc1cnc2c(Nc3cnn(C(C)C)c3)cccn12` [Example 78]: the remaining binding at 1 µM in assay [1] came out at 100%; in assay [2], 100%; in assay [3], 100%; in assay [4], 95%.
